Experimental findings from BindingDB's records for patent US12497405 (Merck Sharp & Dohme, 2025) are described below.

pIC50: −log10 of the molar value.

In assay [1] the target is T1, DNA polymerase catalytic subunit (Human cytomegalovirus (strain AD169), UniProt P08546).
T1 sequence (P08546 whole entry): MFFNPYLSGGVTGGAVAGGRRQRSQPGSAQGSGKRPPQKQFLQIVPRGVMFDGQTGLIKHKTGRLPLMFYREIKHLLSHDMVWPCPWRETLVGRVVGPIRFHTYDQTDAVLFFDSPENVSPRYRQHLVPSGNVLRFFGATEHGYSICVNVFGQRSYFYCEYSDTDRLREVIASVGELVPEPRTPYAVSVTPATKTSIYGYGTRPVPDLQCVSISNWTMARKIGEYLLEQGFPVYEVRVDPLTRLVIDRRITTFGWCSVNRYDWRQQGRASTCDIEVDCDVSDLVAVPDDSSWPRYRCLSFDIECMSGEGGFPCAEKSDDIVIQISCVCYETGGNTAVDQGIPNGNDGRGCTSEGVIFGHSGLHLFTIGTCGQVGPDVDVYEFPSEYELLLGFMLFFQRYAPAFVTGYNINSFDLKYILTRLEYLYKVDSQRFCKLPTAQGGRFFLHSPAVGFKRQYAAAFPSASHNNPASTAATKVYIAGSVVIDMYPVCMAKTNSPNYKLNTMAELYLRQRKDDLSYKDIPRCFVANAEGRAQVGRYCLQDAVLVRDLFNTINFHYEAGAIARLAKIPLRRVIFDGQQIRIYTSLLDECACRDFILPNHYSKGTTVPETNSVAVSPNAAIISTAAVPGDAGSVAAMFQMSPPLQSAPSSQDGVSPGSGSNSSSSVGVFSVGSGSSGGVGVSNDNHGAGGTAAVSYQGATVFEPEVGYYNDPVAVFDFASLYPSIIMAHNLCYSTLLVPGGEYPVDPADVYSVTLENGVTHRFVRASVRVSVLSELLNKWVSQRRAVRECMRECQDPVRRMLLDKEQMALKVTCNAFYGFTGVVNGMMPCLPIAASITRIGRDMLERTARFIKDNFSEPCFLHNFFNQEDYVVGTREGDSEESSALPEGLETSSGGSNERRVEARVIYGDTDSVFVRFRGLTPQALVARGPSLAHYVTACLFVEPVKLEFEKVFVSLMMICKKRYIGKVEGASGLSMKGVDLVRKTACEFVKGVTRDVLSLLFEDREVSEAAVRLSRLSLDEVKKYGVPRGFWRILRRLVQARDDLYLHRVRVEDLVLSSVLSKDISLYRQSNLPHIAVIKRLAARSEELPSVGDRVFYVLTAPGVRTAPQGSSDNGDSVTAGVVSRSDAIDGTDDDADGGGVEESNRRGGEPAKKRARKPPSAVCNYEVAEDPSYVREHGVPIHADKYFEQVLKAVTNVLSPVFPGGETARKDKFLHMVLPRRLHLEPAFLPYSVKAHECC
The assay is described as follows: CMV and VZV Polymerase Assays. The method, then:
(§1) Human cytomegalovirus and varicella zoster virus DNA polymerases were expressed via baculovirus vector in SF21 cells and purified. Heterodimeric nucleic acid substrate used in the herpesvirus polymerase reactions were generated by annealing a 59-mer template to a 17-mer digoxigenin-labeled primer. Polymerase (HCMV final concentration of 0.2 nM; VZV final concentration of 0.4 nM) was combined with an inhibitor compound or DMSO in assay buffer (10 mM HEPES, pH 7.5, 25 mM KCl, 25 mM NaCl, 5 mM MgCl2, 5% glycerol, 0.67 mg/ml bovine serum albumin, and 1 mM tris(2-carboxyethyl)phosphine)), and this mixture was pre-incubated for 30 minutes at room temperature in 384-well microtiter plates. The polymerization reaction was initiated by the addition of template/primer substrate (final concentration: 1.6 nM), and dNTPs (final concentration: 24 nM dCTP, 24 nMdGTP, 16 nM dATP, 16 nM dTTP, and 0.8 nM biotin-dUTP). After a 60 minute incubation period at 37° C., the reactions were terminated using quench buffer (25 mM HEPES pH 7.5, 100 mM NaCl, 0.25% Tween-20, 12 mM EDTA, and 1 mg/ml bovine serum albumin). Incorporation of biotinylated UTP was detected with 2.5-5 μg/mL anti-DIG AlphaLISA acceptor beads and 5-10 μg/mL streptavidin AlphaLISA donor beads (PerkinElmer). […]

For assay [2], the target named is T2, DNA polymerase catalytic subunit (Varicella-zoster virus (strain Dumas), UniProt P09252).
T2 sequence (P09252 whole entry): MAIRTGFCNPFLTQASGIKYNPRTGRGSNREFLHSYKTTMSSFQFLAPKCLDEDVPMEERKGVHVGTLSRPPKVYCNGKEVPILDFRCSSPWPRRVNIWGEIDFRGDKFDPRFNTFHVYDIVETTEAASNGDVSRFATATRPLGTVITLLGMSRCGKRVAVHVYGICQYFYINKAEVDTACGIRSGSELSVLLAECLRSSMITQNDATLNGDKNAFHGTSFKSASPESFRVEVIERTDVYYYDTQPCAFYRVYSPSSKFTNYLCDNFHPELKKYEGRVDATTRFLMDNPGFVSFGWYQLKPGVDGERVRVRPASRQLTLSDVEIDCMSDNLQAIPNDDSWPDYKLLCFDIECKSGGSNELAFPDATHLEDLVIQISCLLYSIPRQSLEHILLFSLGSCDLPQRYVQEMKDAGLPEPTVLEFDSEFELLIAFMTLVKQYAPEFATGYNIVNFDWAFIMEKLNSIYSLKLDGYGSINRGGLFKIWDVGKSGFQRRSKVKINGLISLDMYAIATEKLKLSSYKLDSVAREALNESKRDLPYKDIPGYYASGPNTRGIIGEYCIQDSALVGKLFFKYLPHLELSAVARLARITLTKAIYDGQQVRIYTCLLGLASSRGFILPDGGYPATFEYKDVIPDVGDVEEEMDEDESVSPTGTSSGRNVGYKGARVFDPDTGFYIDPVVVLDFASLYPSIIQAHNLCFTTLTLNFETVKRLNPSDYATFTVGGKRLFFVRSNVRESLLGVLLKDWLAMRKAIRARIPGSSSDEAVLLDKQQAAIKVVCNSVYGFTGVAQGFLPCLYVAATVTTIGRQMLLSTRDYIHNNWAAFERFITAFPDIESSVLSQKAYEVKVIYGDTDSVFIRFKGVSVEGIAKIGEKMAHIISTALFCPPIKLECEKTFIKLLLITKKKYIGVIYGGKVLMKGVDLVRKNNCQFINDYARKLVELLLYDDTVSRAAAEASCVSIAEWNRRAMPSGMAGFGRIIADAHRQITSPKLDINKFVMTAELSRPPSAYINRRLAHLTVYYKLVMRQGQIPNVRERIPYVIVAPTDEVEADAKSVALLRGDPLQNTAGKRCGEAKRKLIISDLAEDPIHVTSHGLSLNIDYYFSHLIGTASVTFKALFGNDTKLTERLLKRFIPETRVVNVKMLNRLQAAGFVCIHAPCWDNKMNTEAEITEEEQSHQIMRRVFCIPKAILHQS
The assay is described as follows: CMV and VZV Polymerase Assays. The method, then: as §1

As a reminder, the pIC50 is the IC50 on a negative log10 scale, so that one unit is a factor of ten. Consider `O=C1OC[C@@H]2C[C@@H](Oc3cc4c(=O)n(Cc5ccc(Cl)cc5)cnc4nc3-c3cnco3)CCN12` [US12497405, Compound 37], for which the results for the pIC50 in assay [1] and in assay [2] were 8.96 and 9.66, respectively.
